# Source: PubChem BioAssay (NCI)
#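 GI50: concentration for 50% inhibition of growth. TGI marks complete inhibition of growth.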
# What was measured:
# Experiment in all cases: NCI anticancer screen, dose series, 384-well format
# LOX IMVI melanoma = tested on: LOX IMVI melanoma
# PC-3 prostate = tested on: PC-3 prostate
# NCI-H23 lung = tested on: NCI-H23 lung
# MALME-3M melanoma = tested on: MALME-3M melanoma
# T-47D breast = tested on: T-47D breast
# MDA-MB-468 breast = tested on: MDA-MB-468 breast
# UO-31 renal = tested on: UO-31 renal
# TK-10 renal = tested on: TK-10 renal
# A498 renal = tested on: A498 renal
# MOLT-4 leukemia = tested on: MOLT-4 leukemia
# RXF 393 renal = tested on: RXF 393 renal
# SW-620 colon = tested on: SW-620 colon
# DU-145 prostate = tested on: DU-145 prostate
# SF-268 CNS = tested on: SF-268 CNS
# RPMI-8226 leukemia = tested on: RPMI-8226 leukemia
# CCRF-CEM leukemia = tested on: CCRF-CEM leukemia
# U251 glioblastoma = tested on: U251 glioblastoma
# MCF7 breast = tested on: MCF7 breast
# HT29 colon = tested on: HT29 colon
# SNB-75 CNS = tested on: SNB-75 CNS
# NCI/ADR-RES ovarian = tested on: NCI/ADR-RES ovarian
# OVCAR-4 ovarian = tested on: OVCAR-4 ovarian
# SK-OV-3 ovarian = tested on: SK-OV-3 ovarian
# ACHN renal = tested on: ACHN renal
# COLO 205 colon = tested on: COLO 205 colon
# MDA-MB-435 melanoma = tested on: MDA-MB-435 melanoma
# NCI-H322M lung = tested on: NCI-H322M lung
# HOP-92 NSCLC = tested on: HOP-92 NSCLC
# OVCAR-3 ovarian = tested on: OVCAR-3 ovarian
# SNB-19 CNS = tested on: SNB-19 CNS
# SF-539 CNS = tested on: SF-539 CNS
# SR leukemia = tested on: SR leukemia
# HS 578T breast = tested on: HS 578T breast
# HL-60(TB) leukemia = tested on: HL-60(TB) leukemia
# SF-295 CNS = tested on: SF-295 CNS
# EKVX NSCLC = tested on: EKVX NSCLC
# UACC-62 melanoma = tested on: UACC-62 melanoma
# NCI-H460 NSCLC = tested on: NCI-H460 NSCLC
# NCI-H226 lung = tested on: NCI-H226 lung
# HCT-15 colon = tested on: HCT-15 colon
# SN12C renal = tested on: SN12C renal
# KM12 colon = tested on: KM12 colon
# A549 NSCLC = tested on: A549 NSCLC
# HOP-62 NSCLC = tested on: HOP-62 NSCLC
# SK-MEL-5 melanoma = tested on: SK-MEL-5 melanoma
# K-562 leukemia = tested on: K-562 leukemia
# IGROV1 ovarian = tested on: IGROV1 ovarian
# OVCAR-8 ovarian = tested on: OVCAR-8 ovarian
# BT-549 breast = tested on: BT-549 breast
# SK-MEL-28 melanoma = tested on: SK-MEL-28 melanoma
# MDA-MB-231 breast = tested on: MDA-MB-231 breast
# HCC-2998 colon = tested on: HCC-2998 colon
# UACC-257 melanoma = tested on: UACC-257 melanoma
# M14 melanoma = tested on: M14 melanoma
# 786-0 renal = tested on: 786-0 renal
# CAKI-1 renal = tested on: CAKI-1 renal
# HCT-116 colon = tested on: HCT-116 colon
# NCI-H522 lung = tested on: NCI-H522 lung
compound,measurement,setting,value
CC(C)c1c(-c2ccccc2)nc2c(C#N)c[nH]n2c1=O,GI50,LOX IMVI melanoma,21.1 µM
same,TGI,LOX IMVI melanoma,41.9 µM
same,GI50,PC-3 prostate,37.2 µM
same,TGI,PC-3 prostate,> 100 µM
same,GI50,NCI-H23 lung,20.3 µM
same,TGI,NCI-H23 lung,44.5 µM
same,GI50,MALME-3M melanoma,17.6 µM
same,TGI,MALME-3M melanoma,36.1 µM
same,GI50,T-47D breast,21 µM
same,TGI,T-47D breast,42.9 µM
same,GI50,MDA-MB-468 breast,19.6 µM
same,TGI,MDA-MB-468 breast,37.2 µM
same,GI50,UO-31 renal,38.9 µM
same,TGI,UO-31 renal,> 100 µM
same,GI50,TK-10 renal,34.1 µM
same,TGI,TK-10 renal,> 100 µM
same,GI50,A498 renal,40.2 µM
same,TGI,A498 renal,> 100 µM
same,GI50,MOLT-4 leukemia,16.2 µM
same,TGI,MOLT-4 leukemia,29.9 µM
same,GI50,RXF 393 renal,28.6 µM
same,TGI,RXF 393 renal,> 100 µM
same,GI50,SW-620 colon,38.8 µM
same,TGI,SW-620 colon,> 100 µM
same,GI50,DU-145 prostate,31.9 µM
same,TGI,DU-145 prostate,> 100 µM
same,GI50,SF-268 CNS,36.6 µM
same,TGI,SF-268 CNS,> 100 µM
same,GI50,RPMI-8226 leukemia,21.1 µM
same,TGI,RPMI-8226 leukemia,37.9 µM
same,GI50,CCRF-CEM leukemia,20.8 µM
same,TGI,CCRF-CEM leukemia,42.4 µM
same,GI50,U251 glioblastoma,34.4 µM
same,TGI,U251 glioblastoma,> 100 µM
same,GI50,MCF7 breast,20.9 µM
same,TGI,MCF7 breast,54.7 µM
same,GI50,HT29 colon,38 µM
same,TGI,HT29 colon,> 100 µM
same,GI50,SNB-75 CNS,35.2 µM
same,TGI,SNB-75 CNS,> 100 µM
same,GI50,NCI/ADR-RES ovarian,27.5 µM
same,TGI,NCI/ADR-RES ovarian,69.5 µM
same,GI50,OVCAR-4 ovarian,25.9 µM
same,TGI,OVCAR-4 ovarian,74.2 µM
same,GI50,SK-OV-3 ovarian,36.8 µM
same,TGI,SK-OV-3 ovarian,> 100 µM
same,GI50,ACHN renal,38.3 µM
same,TGI,ACHN renal,> 100 µM
same,GI50,COLO 205 colon,24.1 µM
same,TGI,COLO 205 colon,47.9 µM
same,GI50,MDA-MB-435 melanoma,39.9 µM
same,TGI,MDA-MB-435 melanoma,> 100 µM
same,GI50,NCI-H322M lung,33.6 µM
same,TGI,NCI-H322M lung,> 100 µM
same,GI50,HOP-92 NSCLC,30.5 µM
same,TGI,HOP-92 NSCLC,89 µM
same,GI50,OVCAR-3 ovarian,18 µM
same,TGI,OVCAR-3 ovarian,36.3 µM
same,GI50,SNB-19 CNS,43.6 µM
same,TGI,SNB-19 CNS,> 100 µM
same,GI50,SF-539 CNS,34.2 µM
same,TGI,SF-539 CNS,> 100 µM
same,GI50,SR leukemia,25.2 µM
same,TGI,SR leukemia,41.2 µM
same,GI50,HS 578T breast,37.7 µM
same,TGI,HS 578T breast,> 100 µM
same,GI50,HL-60(TB) leukemia,12.2 µM
same,TGI,HL-60(TB) leukemia,25.7 µM
same,GI50,SF-295 CNS,22.9 µM
same,TGI,SF-295 CNS,62.4 µM
same,GI50,EKVX NSCLC,22.4 µM
same,TGI,EKVX NSCLC,46.4 µM
same,GI50,UACC-62 melanoma,24.2 µM
same,TGI,UACC-62 melanoma,66.7 µM
same,GI50,NCI-H460 NSCLC,27.4 µM
same,TGI,NCI-H460 NSCLC,65.3 µM
same,GI50,NCI-H226 lung,27 µM
same,TGI,NCI-H226 lung,70.9 µM
same,GI50,HCT-15 colon,38.8 µM
same,TGI,HCT-15 colon,> 100 µM
same,GI50,SN12C renal,20.3 µM
same,TGI,SN12C renal,41.9 µM
same,GI50,KM12 colon,30.8 µM
same,TGI,KM12 colon,> 100 µM
same,GI50,A549 NSCLC,33.1 µM
same,TGI,A549 NSCLC,> 100 µM
same,GI50,HOP-62 NSCLC,24.9 µM
same,TGI,HOP-62 NSCLC,65.9 µM
same,GI50,SK-MEL-5 melanoma,19.4 µM
same,TGI,SK-MEL-5 melanoma,35.6 µM
same,GI50,K-562 leukemia,37.7 µM
same,TGI,K-562 leukemia,> 100 µM
same,GI50,IGROV1 ovarian,44 µM
same,TGI,IGROV1 ovarian,> 100 µM
same,GI50,OVCAR-8 ovarian,37.6 µM
same,TGI,OVCAR-8 ovarian,> 100 µM
same,GI50,BT-549 breast,39.9 µM
same,TGI,BT-549 breast,> 100 µM
same,GI50,SK-MEL-28 melanoma,28.5 µM
same,TGI,SK-MEL-28 melanoma,96.8 µM
same,GI50,MDA-MB-231 breast,24.2 µM
same,TGI,MDA-MB-231 breast,53.5 µM
same,GI50,HCC-2998 colon,44.9 µM
same,TGI,HCC-2998 colon,> 100 µM
same,GI50,UACC-257 melanoma,22.3 µM
same,TGI,UACC-257 melanoma,46.3 µM
same,GI50,M14 melanoma,30.7 µM
same,TGI,M14 melanoma,96.8 µM
same,GI50,786-0 renal,33.6 µM
same,TGI,786-0 renal,> 100 µM
same,GI50,CAKI-1 renal,44.8 µM
same,TGI,CAKI-1 renal,> 100 µM
same,GI50,HCT-116 colon,34.5 µM
same,TGI,HCT-116 colon,> 100 µM
same,GI50,NCI-H522 lung,19 µM
same,TGI,NCI-H522 lung,37.6 µM
